Values after ≈ are worked out from the molar mass of the structure shown.
Legend:
GS28 = GS28 expression by Western blotting; type: cell-based; conditions: MOLT4, Hs578T, H-460, overnight
Description: The culture medium was removed by vacuuming (for attached cells) or by low speed centrifugation (for suspension cells) for 5-7 minutes at room temperature. The cells were wasedh twith PBS, spun at 1200 rpm and the cell pellets were kept on ice. 300 μl/2.0×10^7 cells of ice cold lysis buffer was added with freshly added protease inhibitors. Cell pellets were gently resuspended and incubated on ice for at least 30 min, vortexed a few times during incubation. Cell lysate was spun at 14,000 rpm for 2-5 min at 4° C. The supernatant was transferred to a new microfuge tube and the pellet was discarded. An aliquot of sample was mixed with an equal volume of 2× sample buffer (InVitrogen), and stored at −80° C. Protein concentration was determined by using “BCA protein assay reagent kit” from Pierce.
Protein samples (in sample buffer) were boiled for 1-3 minutes and put on ice. Same amount of protein were loaded on the NuPage gel (InVitrogen). After the electrophoresis was complete, proteins were transferred from the gel to a PVDF membrane using the electro-blotting apparatus from InVitrogen; the voltage was set to 25 for 2-3 hr. Block non-specific binding by incubating membrane with 5% milk (in PBS, 0.1% tween 20) for at least 30 min at room temperature or overnight at 4° C. The blocked membrane was incubated with primary antibody (See TABLE 2) diluted in 5% milk for 1 hour at room temperature. Optimal antibody dilution depends on the company, the amount of protein. Dilutions of 1:1000 were generally used for the primary antibodies from Santa Cruz. The membrane was washed with PBS, 0.1% tween 3-4 times 5 mins. The membrane was incubated for 30-60 minutes at room temperature with horseradish peroxidase (HRP) conjugated secondary antibody diluted in 5% milk. We usually used 1:4000 dilution for the secondary antibody from Santa Cruz. The membrane was washed 3-4 times with PBS, 0.1% tween, each time 15 minutes. The detection solutions A and B were mixed in a ratio 40:1 and Pipetted onto the membrane, and incubated for 5 min at RT. A sheet of Hyper film ECL was placed on the top of the membrane in the dark and exposed for 1 min, or adjust accordingly.
To further examine the putative protein trafficking effects of AVP 893, other proteins in this pathway were tested in vitro in B16 and other cell lines. The effect of AVP 893 on cellular proteins was corroborated in B16 cells and extended to include a time-course (FIG. 17). B16-F10 tumor cells were seeded in T75 flasks at 20% confluence and cultured overnight. AVP 893 (100 ng/ml) was added to several flasks and one flask of cells was harvested at several time points following addition of compound. Lysates were prepared, separated by electrophoresis, and probed with antibody as described above in the general Western blotting protocol. Drug effects on GS28 and nicastrin paralleled each other and were progressively stronger with longer drug incubations. […] Other cell lines were tested for their expression of GS28 and nicastrin and found to respond similarly to drug, although quantitative differences were evident. Tumor cell lines found to respond similarly to AVP 893 include CAK1, SF295, PC3, MOLT4, Neuro2a, and RBL (FIGS. 18, 19, and 20). For the experiment shown in FIG. 18, LOX, CAKI, and 3T3 cell lines were treated as described for FIG. 17. For the results shown in FIG. 19, SF295, PC3, MOLT-4, and Neuro2a cells were treated as described for FIG. 17. For the results shown in FIG. 20, LOX, 3T3, and RBL cell lines were treated with varying concentrations of AVP 893 as described for FIG. 17. The effects on LOX cells were less evident. […] Levels of calnexin, a resident ER protein used as a control, were unchanged in drug-treated cells.

Mannosidase II = Mannosidase II immunocytochemistry; type: cell-based; conditions: 1 hr of treatment, immunocytochemistry
Description: GS15, GS28, GPP130, and Mannosidase II, sparing the golgi structural protein GM-130 and having little effect on the Rab GTPase Rab6. Furthermore, these affects were most pronounced following overnight (16-20 hr) incubations with AVP 893, although some affects at early time points were seen. These conclusions were drawn from the western blot analysis (FIG. 29), as well as from the immunocytochemical studies (FIGS. 30-31).
Additional evidence that AVP 893 has unique activity against resident golgi proteins (e.g. Mannosidase II), was found using both shorter durations of drug exposure and immunocytochemistry instead of western blot analysis (FIG. 43).

[1] = system: tumor cell lines (NCI 60-cell screening panel); conditions: NCI 60-cell screen, data from the NCI database; cited from earlier work
HCC 1806 = assay: Inhibition of tumor cell proliferation in vitro (SRB total protein); type: cell-based; conditions: in-house head-to-head, about 72 hours
Description: (§1) For a typical screening experiment, cells are inoculated into 96 well microtiter plates in 100 μl at plating densities ranging from 5,000 to 40,000 cells/well depending on the doubling time of individual cell lines. After cell inoculation, the microtiter plates are incubated at 37° C., 5% or 10% CO2—depending on the cell line and media—95% air and 100% relative humidity for 24 h prior to addition of experimental drugs. After 24 h, two plates of each cell line are fixed in situ with TCA, to represent a measurement of the cell population for each cell line at the time of drug addition. Following drug addition, the plates are incubated for an additional 48 h at 37° C., 5%/10% CO2, 95% air, and 100% relative humidity. For adherent cells, the assay is terminated by the addition of cold TCA. Cells are fixed in situ by the gentle addition of 50 μl of cold 50% (w/v) TCA (final concentration, 10% TCA) and incubated for 60 minutes at 4° C. The supernatant is discarded, and the plates are washed five times with tap water and air-dried. Sulforhodamine B (SRB) solution (10011) at 0.4% (w/v) in 1% acetic acid is added to each well, and plates are incubated for 10 minutes at room temperature. After staining, unbound dye is removed by washing five times with 1% acetic acid and the plates are air-dried. Bound stain is subsequently solubilized with 10 mM trizma base, and the absorbance is read on an automated plate reader at a wavelength of 515 nm. For suspension cells, the methodology is the same except that the assay is terminated by fixing settled cells at the bottom of the wells by gently adding 50 μl of 80% TCA (final concentration, 16% TCA). Using the seven absorbance measurements [time zero, control growth, and test growth in the presence of drug at the five concentration levels], the percentage growth is calculated at each of the drug concentrations levels.
(§2) Brefeldin A was tested by the NCI for inhibition of tumor cell proliferation in the 60-cell screen. The NCI 60-cell screen was performed essentially as described for FIG. 9. Data available from the NCI database for Brefeldin A was compared with more recent AVP 893 data. […] Several tumor cell lines were cultured in the presence of either AVP 893 or Brefeldin A for about 72 hours before assessing proliferation response by measuring total protein (SRB), as described for FIG. 9. The results of the head-to-head comparisons performed in-house also show substantial variation in the relative proliferative responses of cells to Brefeldin A and AVP 893 in vitro (TABLE 3).

MOLT-4 = assay: as above; type: cell-based; conditions: in-house head-to-head, about 72 hours, SRB
Description: as §1, §2

Hs578T = assay: as above; type: cell-based; conditions: in-house head-to-head, about 72 hours, SRB
Description: as §1, §2

NCI H-460 = assay: as above; type: cell-based; conditions: in-house head-to-head, about 72 hours, SRB
Description: as §1, §2

[2] = system: CD23 and the IL-4 receptor on murine B cells and human monocytes; assay: Induction of CD23 and IL-4 receptor expression; type: cell-based, mouse; conditions: murine B cells and human monocytes in vitro
[3] = system: T cells from mouse spleen and human PBL; assay: T cell cytokine responses in vitro (Luminex beads); type: cell-based
Excerpt: These series of compounds were initially identified on the basis of their IgE-blocking activity in an ex vivo IgE response protocol (FIG. 2), and the biological activity of all analogs are characterized on the basis of their activity in this assay. Activity in the ex vivo assay is corroborated in the in vitro assay of B cell response to 1L-4/anti-CD40 Ab-stimulated IgE in human PBL (FIG. 3) using standard procedures, and mouse splenic B cells (not shown). Drug action on T cells was shown by testing T cell cytokine responses to various stimuli in vitro. The response of a cadre of cytokines and chemokines to several alternative stimuli was tested in T cells from both mouse spleen and human PBL. T cells were isolated from murine spleen and cultured for 16 hours in the presence of stimulus+/−AVP 13358. Supernatants were quantified for cytokines using Luminex beads. All cytokines achieved levels of at least 200 pg/ml and 10-fold higher than background (FIG. 4). T cells were isolated from donor PBL and cultured for 16-36 hours in the presence of Phytohemaglutin (PHA, 5 μg/ml) and ConA (5 μg/ml)+/−AVP 13358. Supernatants were quantified for cytokines using Luminex beads (FIG. 5). […] Total protein was assessed by the SRB assay, as adopted for many of the proliferation experiments outline below.

[4] = system: rat basophilic leukemia (RBL) cells; assay: Degranulation of RBL cells; type: cell-based; conditions: induced with PMA/ionomycin or IgE-antigen complexes, not shown
Excerpt: The proposed mechanism of the AVP compounds on intracellular protein transit also allows certain predictions as to other effects and non-effects that these compounds might share. For example, inhibition of vesicle fusion or budding between the ER and golgi should not affect exocytosis as would be expected of a post-golgi active compound such as Monensin. AVP 893 has minimal effects on the expression of proteins involved in exocytosis, particularly VAMP, SNAP23 (non-neuronal cells), and SNAP25 (neuronal cells).

60 kinase assays = assay: Kinase and biochemical assay screens (Upstate panel); conditions: concentrations of less than 1 μg/ml; 1 μM in 60 kinase assays
Excerpt: In an effort to understand how these compounds might be acting at the cellular and molecular level, several screens of drug activity were initiated. The first 2 screens were designed to test the activity of drug on certain binding events and the activity of a variety of enzymes in vitro (FIGS. 14 and 15).

| Compound | GS28 expression (GS28) | Mannosidase II staining pattern (Mannosidase II) | concentrations inhibiting proliferation of virtually all cells [1] | IC50 (HCC 1806) | IC50 (MOLT-4) | IC50 (Hs578T) | IC50 (NCI H-460) | induction of CD23 and IL-4 receptor [2] | IL-1 levels ([3]; in vitro) | levels of cytokines including IL-4, IL-5, IL-13 ([3]; stimulated T cells, 16-36 hours) | degranulation [4] | activity in kinase and biochemical assays (60 kinase assays) |
| --- | --- | --- | --- | --- | --- | --- | --- | --- | --- | --- | --- | --- |
| C[C@H]1CCC/C=C/[C@@H]2C[C@H](O)C[C@H]2[C@H](O)/C=C/C(=O)O1 [Brefeldin A, reference compound] | variable effects | completely dispersed | 10 to 100 nM | 0.03 mg/L (≈ 0.107 µM) | 0.003 mg/L (≈ 0.0107 µM) | 0.1 mg/L (≈ 0.357 µM) | 0.005 mg/L (≈ 0.0178 µM) |  |  |  |  |  |
| O=C(Nc1ccccn1)c1ccc2[nH]c(-c3ccc(NC(=O)C45C[C@H]6C[C@@H](C4)C[C@@H](C5)C6)cc3)nc2c1 [AVP 13358] |  |  |  |  |  |  |  | potently blocked the induction of these receptors | does not affect IL-1 levels | potently suppressed the levels of most cytokines | does not inhibit degranulation | no drug activity was observed |

From patent US20050256179A1, “Selective pharmacologic inhibition of protein trafficking and related methods of treating human diseases” (priority 2003, published 2005)
